Values joined by “and” are separate entries in the source; they are usually repeats but may differ in a detail not shown here. Identical values can stand only once. Counter-ions that a name gives are not always drawn. Like-named read-outs stand apart in the source and are kept apart here.
Key:
SARS-CoV-2 Mpro [1] = molecular target: T1, SARS-CoV-2 Mpro (Severe acute respiratory syndrome coronavirus 2, UniProt P0DTC1); experiment: In-cell protease (ICP) assay, Mpro construct in HEK293T cells; format: cell-based; conditions: for remaining activity at 1 µM / remaining activity at 10 µM: HEK-293T; for remaining activity at 1 µM: read-out: mEmerald-NLS nuclear/total fluorescence (protease activity) normalized to untreated cells, 1 μM, HEK293T, Fig 2A replicate data, untreated control = 100; for remaining activity at 10 µM: read-out: mEmerald-NLS nuclear/total fluorescence (protease activity) normalized to untreated cells, 10 μM, HEK293T, Fig 2A replicate data, untreated control = 100
HEK293T cells = experiment: Cell viability (alamarBlue) on HEK293T cells; conditions: replicate data
SARS-CoV-2 [2] = format: cell-based; conditions: Huh-7.5, MOI 0.1, 24 h.p.i., anti-N IFA
SARS-CoV-2 [3] = experiment: microbe, parasite or virus in culture; format: cell-based; conditions: for EC50: Severe acute respiratory syndrome coronavirus 2, Huh7.5, Huh-7.5 cells
SARS-CoV-2 [4] = conditions: Vero E6 cells; cited from earlier work
[5] = Cytotoxicity assay (alamarBlue) on Huh-7.5 cells; conditions: human, CC50, Huh-7.5 cells, alamarBlue reduction
SARS-CoV-2 Mpro [6] = molecular target: T1, SARS-CoV-2 Mpro; experiment: biochemical; conditions: for inhibition of Mpro protease activity: FRET assay
Procedure: A cleavage site is indicated by an asterisk. […] N = 3, values are represented as mean ± SE.
For the determination of half-maximal inhibitory concentrations (IC50) of MG-101 and GC376 (BPS Bioscience), a synthetic substrate of Mpro containing FRET pair and Mpro nsp4/5 cleavage site (indicated by an arrow, Dabcyl-KTSAVLQ ↓ SGFRKME-Edans) (BPS Bioscience) was used for the FRET-based cleavage assay. The assay was performed in 96-well, black, flat-bottomed microtiter plates (Greiner Bio-One, Germany) with a final volume of 50 μl. Mpro (a final concentration of 200 nM) was pre-incubated for 1 h at 22 °C with compounds at different concentrations in the assay buffer (20 mM HEPES (pH 7), 0.5 mM EDTA, 1 mM dithiothreitol, 5% glycerol). The substrate was then added at a final concentration of 10 μM to the reaction mixture and the reaction was incubated for 4 h at 22 °C. The readings for the different concentrations of the inhibitor compounds incubated with the substrate without Mpro were measured as a blank. The fluorescence signals (excitation/emission, 360 nm/460 nm) of released EDANS were measured using Infinite 200 PRO multimode plate reader (Tecan, USA). The results were plotted as dose inhibition curves using nonlinear regression with a variable slope to determine the IC50 values of inhibitor compounds using GraphPad Prism 9.0.

in vitro = conditions: human
SARS-CoV-2 [7] = experiment: qRT-PCR of viral RNA molecules in infected Huh-7.5 cells; format: cell-based; conditions: Huh-7.5, 24 h.p.i.
Procedure: We tested the effect of selected compounds in inhibiting the spread of SARS-CoV-2 on cell monolayers was tested by immunofluorescence assay (IFA) (Fig. 5a). From the percentage of inhibition (Fig. 5b), we calculated that the PLpro inhibitors Sitagliptin and Daclastavir inhibited virus spread by 75% and 70%, respectively, compared to untreated controls (Fig. 5b). […] We next determined whether the reduction in virus spread in the inhibitor-treated cells correlates with virus replication. We extracted total RNA from infected cells treated with inhibitors and quantified the number of viral RNA molecules by quantitative real-time polymerase chain reaction (qRT-PCR) (Fig. 5c). […] However, the reduction in the number of viral RNA molecules was lower for BMS-707035 (1-log reduction), Atazanavir (0.5-log), and Lomibuvir (0.5-log).
Fig. 5 Effect of compounds selected from ICP assay on SARS-CoV-2 replication. a Huh-7.5 cells positive for SARS-CoV-2 determined by immunofluorescence assay. Huh-7.5 cells pre-treated for 24 h with inhibitors were infected with SARS-CoV-2 at an MOI of 0.1. At 24 h.p.i., cells were fixed with paraformaldehyde and probed with anti-N (SARS CoV-2 nucleocapsid) primary antibody and FITC-conjugated goat anti-rabbit secondary antibody (green, infected cells). Nuclei were stained with Hoechst stain and confocal images were acquired. b The ratio of infected to uninfected cells for each treatment was calculated using Nikon Elements software and normalized to untreated controls (n = 5). c Quantification of SARS-CoV-2 RNA molecules from infected cells treated with inhibitors as indicated (n = 3).
Huh-7.5 cells grown in DMEM in 6 well tissue culture plates were pre-treated with different concentrations of compounds for 24 h were infected with 0.1 MOI of SARS-CoV-2. After 1 h of infection, virus-containing media were replaced with fresh media-containing compounds, and the plates were incubated at 37 °C. Untreated cells were included in the experiment as controls. After 24 h, total RNA was extracted from the cells using a Zymopure Quick-RNA extraction kit. The number of viral RNA molecules in the extracted total RNA samples was determined by quantitative RT-PCR on a QuantStudio-3 machine (Applied BioSystems) using primers –Forward […] and Reverse […]. The Ct values obtained were used to calculate the number of RNA molecules using a standard curve of Ct versus RNA molecules.

SARS-CoV-2 PLpro [8] = molecular target: T2, SARS-CoV-2 PLpro (Severe acute respiratory syndrome coronavirus 2, UniProt P0DTC1); experiment: In vitro PLpro protease inhibition assay (Z-RLRGG-AMC); format: biochemical
Mpro = conditions: read-out: IC50, reported value; cited from earlier work
SARS-CoV-2 [9] = experiment: Time of addition (pre-treatment) experiment in Huh-7.5 cells, plaque assay; format: cell-based; conditions: Huh-7.5, pretreatment
Huh-7.5 cells = experiment: Cytotoxicity assay (alamarBlue) on Huh-7.5 cells; conditions: Huh-7.5 cells, alamarBlue reduction
SARS-CoV-2 PLpro [10] = molecular target: T2, SARS-CoV-2 PLpro; experiment: cell-based; conditions: HEK-293T, read-out: mEmerald-NLS nuclear/total fluorescence (protease activity) normalized to untreated cells, 10 μM, HEK293T, Fig 2A replicate data, untreated control = 100
COVID-19 = tested on: COVID-19; parameters: method as in PMID 32994187; conditions: cited from earlier work
[11] = MOI 0.1, 24 h.p.i., plaque assay

Compound	remaining activity at 1 µM (SARS-CoV-2 Mpro [1]) [%]	remaining activity at 10 µM (SARS-CoV-2 Mpro [1]) [%]	% normalised alamar Blue reduction at 10μM (HEK293T cells)	inhibition of virus spread compared to untreated controls (SARS-CoV-2 [2])	EC50 (SARS-CoV-2 [3]; [11]) [nM]	inhibition of Mpro protease activity (SARS-CoV-2 Mpro [6])	also measured
C=C[C@@H]1C[C@]1(NC(=O)[C@@H]1C[C@@H](Oc2ncc(OC)c3ccc(Cl)cc23)CN1C(=O)[C@@H](NC(=O)OC(C)(C)C)C(C)(C)C)C(=O)NS(=O)(=O)C1CC1 [Asunaprevir]	88	69	78% and 88% and 90%	–	–	–	–
COC(=O)N[C@H](C(=O)N[C@@H](Cc1ccccc1)[C@@H](O)CN(Cc1ccc(-c2ccccn2)cc1)NC(=O)[C@@H](NC(=O)OC)C(C)(C)C)C(C)(C)C [Atazanavir]	89	50	–	below 50%	60	not found to be effectively inhibiting the Mpro protease activity	% normalised alamar Blue reduction at 10μM (HEK293T cells; listed as Atazanavir sulfate): 89% and 95.2% and 90.5%; EC50 (SARS-CoV-2 [4]): 500 ± 80 nM; CC50 at 24 h [5]: 77200 nM
Cn1c(N2CCCCS2(=O)=O)nc(C(=O)NCc2ccc(F)cc2)c(O)c1=O [BMS-707035]	79	60	–	81%	–	not found to be effectively inhibiting the Mpro protease activity	EC50 (SARS-CoV-2 [3]): 270 nM; CC50 at 24 h (in vitro; CC50): 42200 nM
CC(C)(C)NC(=O)N[C@H](C(=O)N1C[C@H]2[C@@H]([C@H]1C(=O)NC(CC1CCC1)C(=O)C(N)=O)C2(C)C)C(C)(C)C (stereo partly shown) [Bocoprevir]	71	69	–	–	–	–	–
COC(=O)N[C@H](C(=O)N1CCC[C@H]1c1nc(-c2ccc(-c3ccc(-c4c[nH]c([C@@H]5CCCN5C(=O)[C@@H](NC(=O)OC)C(C)C)n4)cc3)cc2)c[nH]1)C(C)C [Daclastavir HCl]	–	–	–	70%	1590	–	% normalised alamar Blue reduction at 10μM (HEK293T cells; listed as Daclatasvir dihydrochloride): 89% and 80% and 96%; reduction in the number of viral RNA molecules compared to untreated cells (SARS-CoV-2 [7]): 2 log; CC50 at 24 h [5]: 32100 nM; IC50 (SARS-CoV-2 PLpro [8]): 1840 ± 256 nM
COC(=O)N[C@H](C(=O)N1CCC[C@H]1c1nc(-c2ccc(-c3ccc(-c4c[nH]c([C@@H]5CCCN5C(=O)[C@@H](NC(=O)OC)C(C)C)n4)cc3)cc2)c[nH]1)C(C)C [Daclatasvir (BMS-790052)]	–	–	80% and 88% and 75%	–	–	–	–
CC(C)CN(C[C@@H](O)[C@H](Cc1ccccc1)NC(=O)O[C@H]1CO[C@H]2OCC[C@H]21)S(=O)(=O)c1ccc(N)cc1 [Darunavir]	–	–	80% and 97% and 79%	–	–	–	–
CC(C)C[C@H](NC(=O)OCc1ccccc1)C(=O)N[C@@H](CC1CCNC1=O)C(O)S(=O)(=O)O (stereo partly shown) [GC376]	–	–	–	–	–	–	IC50 (Mpro): 190 nM; IC50 (SARS-CoV-2 Mpro [6]): 130 ± 70 nM
COc1cc(O)c(CC=C(C)C)c2c1C(=O)CC(c1ccc(O)cc1)O2 (stereo not shown) [Isoxanthohumol]	90	60	–	–	–	–	–
CC(C)(C)C#Cc1cc(N(C(=O)[C@H]2CC[C@H](C)CC2)[C@H]2CC[C@H](O)CC2)c(C(=O)O)s1 [Lomibuvir]	90	44	–	below 50%	70	not found to be effectively inhibiting the Mpro protease activity	CC50 at 24 h (in vitro; CC50): 48000 nM
Cc1cccc(C)c1OCC(=O)N[C@@H](Cc1ccccc1)[C@@H](O)C[C@H](Cc1ccccc1)NC(=O)[C@H](C(C)C)N1CCCNC1=O [Lopinavir]	80	65	–	–	–	–	–
Cc1c(O)cccc1C(=O)N[C@@H](CSc1ccccc1)[C@H](O)CN1C[C@H]2CCCC[C@H]2C[C@H]1C(=O)NC(C)(C)C [Nelfinavir mesylate]	60	45	88% and 75.67% and 90%	95%	70	not found to be effectively inhibiting the Mpro protease activity	effect of pre-treatment on virus production / entry (SARS-CoV-2 [9]): only minimal effect on virus production; virus titer at 24 h.p.i., Fig S2B data (SARS-CoV-2 [3]; 1 µM final concentration (each), Huh-7.5, replicates): 80000 and 64000 and 88000; reduction in the number of viral RNA molecules compared to untreated cells (SARS-CoV-2 [7]): approximately 3 log; reduction in the number of viral RNA molecules compared to untreated cells (SARS-CoV-2 [7]; listed as Nelfinavir): 3 log; CC50 at 24 h [5]: 26000 nM; CC50 (Huh-7.5 cells): 26000 nM
N[C@@H](CC(=O)N1CCn2c(nnc2C(F)(F)F)C1)Cc1cc(F)c(F)cc1F [Sitagliptin]	–	–	–	75%	320	–	effect on Mpro activity in cells (SARS-CoV-2 Mpro [1]; ICP assay): does not inhibit Mpro activity; Selectivity index SI = CC50/EC50 (SARS-CoV-2 [3]): 67; virus titer at 24 h.p.i., Fig 6A data (SARS-CoV-2 [3]; single drug 1 μM, Huh 7.5, replicates): 56000 and 64000 and 40000; CC50 at 24 h (in vitro; CC50, Huh-7.5 cells, alamarBlue reduction): 21600 nM; reduction in the number of viral RNA molecules compared to untreated cells (SARS-CoV-2 [7]): 2 log; CC50 (Huh-7.5 cells): 22000 nM; IC50 (SARS-CoV-2 PLpro [8]; PLpro 300 nM, Z-RLRGG-AMC 25 μM, read-out: IC50): 1140 ± 190 nM; remaining activity at 10 µM (SARS-CoV-2 PLpro [10]): 56%; mortality rate (deceased patients) (COVID-19; added to standard care, vs. 37% with standard of care): 18%; improved clinical outcomes (improved patients) (COVID-19; vs. 38% with standard of care): 60%; hospital discharges (discharged patients) (COVID-19; vs. 89 with standard of care): 120

From PMC8881501, “Identification of SARS-CoV-2 inhibitors targeting Mpro and PLpro using in-cell-protease assay” (Communications Biology, 2022)
